This is an account of results in ChEMBL document CHEMBL4507282, “Data for DCP probe BI-1950” (2021).

pIC50: −log10 of the molar value.

Data set [1] in a line: tissue or blood. Format: tissue-based. Particulars: Homo sapiens; call rule not given here.
The target of data set [2] is Muscarinic acetylcholine receptor M5 (Homo sapiens) (UniProt P08912). Particulars: Compound concentration 10.0 uM.
The target in data set [3] is 5-hydroxytryptamine receptor 5A (Homo sapiens) (UniProt P47898). Nature of the data set: 5HT5A/HU Eurofins-Panlabs selectivity data (BI). Particulars: Compound concentration 10.0 uM.
The target of data set [4] is Adrenergic receptor alpha-1 (Rattus norvegicus) (UniProt P15823+P23944+P43140). Briefly: ALPHA1/R Eurofins-Panlabs selectivity data (BI). The data set is classed as protein assay. Particulars: Compound concentration 10.0 uM.
Data set [5] has as its target Beta-2 adrenergic receptor (Rattus norvegicus) (UniProt P10608). Nature of the data set: BETA/R Eurofins-Panlabs selectivity data (BI). Particulars: Compound concentration 10.0 uM.
Data set [6] has as its target Voltage-dependent L-type calcium channel subunit alpha-1C (DHP site) (Rattus norvegicus, UniProt P22002). Briefly: CA+/DHPSI/RA Eurofins-Panlabs selectivity data (BI). The following applies: read-out: % Ctrl.
Data set [7] concerns the target T1, D(4) dopamine receptor (Homo sapiens) (UniProt P21917).
T1 sequence (whole entry): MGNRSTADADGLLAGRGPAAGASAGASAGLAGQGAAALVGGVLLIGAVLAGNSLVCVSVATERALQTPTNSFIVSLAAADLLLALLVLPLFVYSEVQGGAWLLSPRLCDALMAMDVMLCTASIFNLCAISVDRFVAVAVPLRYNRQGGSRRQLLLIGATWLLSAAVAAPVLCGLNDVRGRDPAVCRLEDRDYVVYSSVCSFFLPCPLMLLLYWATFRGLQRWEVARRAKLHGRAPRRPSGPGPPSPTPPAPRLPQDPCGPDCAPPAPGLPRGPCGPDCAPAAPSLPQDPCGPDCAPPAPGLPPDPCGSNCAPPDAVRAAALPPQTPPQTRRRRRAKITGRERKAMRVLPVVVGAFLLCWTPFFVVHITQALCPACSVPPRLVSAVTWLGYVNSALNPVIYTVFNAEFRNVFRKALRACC
Briefly: D4.2/H Eurofins-Panlabs selectivity data (BI). Particulars: Compound concentration 10.0 uM.

In data set [8] the target is Sodium-dependent dopamine transporter (Homo sapiens) (UniProt Q01959). Nature of the data set: DATRANS/H Eurofins-Panlabs selectivity data (BI). The following applies: Compound concentration 10.0 uM.
In data set [9] the target is GABA B receptor (Rattus norvegicus) (UniProt Q9Z0U4+O88871). Briefly: GABAB/RA Eurofins-Panlabs selectivity data (BI). The following applies: Compound concentration 10.0 uM. Format: protein-complex assay.
Data set [10] has as its target Histamine H3 receptor (Homo sapiens) (UniProt Q9Y5N1). Nature of the data set: H3/H Eurofins-Panlabs selectivity data (BI). The following applies: Compound concentration 10.0 uM.
Data set [11] has as its target ATP-sensitive inward rectifier potassium channel 1 isoform X1 (Mesocricetus auratus) (UniProt A0A1U8CU73). Briefly: K+/KATP/HA Eurofins-Panlabs selectivity data (BI). Particulars: Compound concentration 10.0 uM.
Data set [12] deals with Amine oxidase [flavin-containing] A (MAO-A) (Homo sapiens, UniProt P21397). Briefly: MAOA Eurofins-Panlabs selectivity data (BI). Also on record: mode of action inhibitor. Particulars: compound concentration 10 uM, read-out: % Ctrl.
The target in data set [13] is Sodium channel regulatory subunit beta-1 (Rattus norvegicus) (UniProt Q00954). Nature of the data set: NA+/SITE2/RA Eurofins-Panlabs selectivity data (BI).
The target of data set [14] is Sodium-dependent noradrenaline transporter (Homo sapiens) (UniProt P23975). Nature of the data set: NETRANS/H Eurofins-Panlabs selectivity data (BI). Particulars: Compound concentration 10.0 uM.
Data set [15] concerns the target Opioid receptor (Rattus norvegicus) (UniProt P33533+P34975+P33535). Briefly: OPIAT/NS Eurofins-Panlabs selectivity data (BI). The data set is classed as protein assay. Particulars: Compound concentration 10.0 uM.
Data set [16] concerns the target Vasopressin V2 receptor (Homo sapiens) (UniProt P30518). Briefly: VASOPRE_V2 Eurofins-Panlabs selectivity data (BI). The following applies: Compound concentration 10.0 uM.
Data set [17] concerns the target 5-hydroxytryptamine receptor 1A (Homo sapiens) (UniProt P08908). Particulars: Compound concentration 10.0 uM.

Voltage-dependent L-type calcium channel subunit alpha-1C (DHP site), sequence (P22002 whole entry): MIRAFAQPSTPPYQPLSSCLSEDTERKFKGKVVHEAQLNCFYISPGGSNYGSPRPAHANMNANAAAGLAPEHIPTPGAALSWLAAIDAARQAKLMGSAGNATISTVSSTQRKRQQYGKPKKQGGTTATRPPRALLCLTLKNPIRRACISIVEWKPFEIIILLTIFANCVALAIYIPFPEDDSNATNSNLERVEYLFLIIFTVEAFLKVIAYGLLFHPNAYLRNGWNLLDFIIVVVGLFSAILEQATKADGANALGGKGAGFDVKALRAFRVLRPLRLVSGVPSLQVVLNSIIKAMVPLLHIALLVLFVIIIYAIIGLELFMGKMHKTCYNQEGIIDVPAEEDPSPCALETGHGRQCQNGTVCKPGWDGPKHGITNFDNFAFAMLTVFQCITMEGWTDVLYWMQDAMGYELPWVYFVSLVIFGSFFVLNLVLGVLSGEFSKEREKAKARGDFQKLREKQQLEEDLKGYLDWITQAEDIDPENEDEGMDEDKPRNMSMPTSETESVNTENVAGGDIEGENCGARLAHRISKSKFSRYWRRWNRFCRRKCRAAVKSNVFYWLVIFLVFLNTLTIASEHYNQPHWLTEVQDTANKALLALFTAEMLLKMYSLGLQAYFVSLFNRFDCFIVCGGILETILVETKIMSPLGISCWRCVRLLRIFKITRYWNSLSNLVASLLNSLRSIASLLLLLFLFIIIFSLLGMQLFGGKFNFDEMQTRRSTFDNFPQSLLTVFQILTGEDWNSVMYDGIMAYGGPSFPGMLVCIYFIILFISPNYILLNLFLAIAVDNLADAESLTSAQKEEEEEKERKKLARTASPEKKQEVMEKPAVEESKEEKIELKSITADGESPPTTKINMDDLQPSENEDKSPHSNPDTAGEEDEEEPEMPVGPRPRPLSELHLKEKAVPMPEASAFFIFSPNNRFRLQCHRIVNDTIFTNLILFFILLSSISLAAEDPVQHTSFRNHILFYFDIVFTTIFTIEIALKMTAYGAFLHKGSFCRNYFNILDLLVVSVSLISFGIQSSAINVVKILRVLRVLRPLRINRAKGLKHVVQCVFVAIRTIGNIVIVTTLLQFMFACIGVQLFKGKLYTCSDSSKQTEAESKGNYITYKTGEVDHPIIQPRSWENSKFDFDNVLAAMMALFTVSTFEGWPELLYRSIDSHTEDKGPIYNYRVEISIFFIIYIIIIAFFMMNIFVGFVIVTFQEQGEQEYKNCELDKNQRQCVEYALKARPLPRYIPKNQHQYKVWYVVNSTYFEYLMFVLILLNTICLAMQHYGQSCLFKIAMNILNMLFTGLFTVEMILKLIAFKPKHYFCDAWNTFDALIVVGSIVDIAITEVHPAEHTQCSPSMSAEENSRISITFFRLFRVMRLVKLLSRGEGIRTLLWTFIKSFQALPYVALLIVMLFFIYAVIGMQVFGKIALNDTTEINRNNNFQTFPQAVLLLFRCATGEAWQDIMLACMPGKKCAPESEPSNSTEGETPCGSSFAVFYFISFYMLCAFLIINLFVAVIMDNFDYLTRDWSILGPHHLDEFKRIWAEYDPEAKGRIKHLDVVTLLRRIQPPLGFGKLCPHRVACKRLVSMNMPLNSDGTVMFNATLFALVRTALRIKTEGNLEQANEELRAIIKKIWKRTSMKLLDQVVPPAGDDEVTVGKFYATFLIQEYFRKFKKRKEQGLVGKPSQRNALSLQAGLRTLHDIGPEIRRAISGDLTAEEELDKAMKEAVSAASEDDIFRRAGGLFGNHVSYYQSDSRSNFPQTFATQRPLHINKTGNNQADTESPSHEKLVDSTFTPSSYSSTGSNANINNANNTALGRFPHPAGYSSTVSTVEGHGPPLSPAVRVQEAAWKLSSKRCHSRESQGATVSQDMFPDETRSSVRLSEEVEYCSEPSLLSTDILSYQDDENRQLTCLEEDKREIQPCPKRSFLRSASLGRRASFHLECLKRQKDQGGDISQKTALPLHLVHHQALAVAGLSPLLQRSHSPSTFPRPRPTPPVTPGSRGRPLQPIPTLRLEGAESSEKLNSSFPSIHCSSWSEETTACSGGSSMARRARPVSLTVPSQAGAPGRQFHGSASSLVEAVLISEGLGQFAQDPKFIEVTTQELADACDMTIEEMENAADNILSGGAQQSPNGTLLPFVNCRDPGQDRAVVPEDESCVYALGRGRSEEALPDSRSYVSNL
Sodium channel regulatory subunit beta-1 (Rattus norvegicus), sequence (Q00954 whole entry): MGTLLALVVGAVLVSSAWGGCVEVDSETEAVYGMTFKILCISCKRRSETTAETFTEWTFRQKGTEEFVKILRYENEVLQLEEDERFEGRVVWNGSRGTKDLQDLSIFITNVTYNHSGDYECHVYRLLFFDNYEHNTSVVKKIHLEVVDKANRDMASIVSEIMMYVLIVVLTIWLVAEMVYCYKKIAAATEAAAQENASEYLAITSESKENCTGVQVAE
Histamine H3 receptor (Homo sapiens), sequence (Q9Y5N1 whole entry, canonical isoform): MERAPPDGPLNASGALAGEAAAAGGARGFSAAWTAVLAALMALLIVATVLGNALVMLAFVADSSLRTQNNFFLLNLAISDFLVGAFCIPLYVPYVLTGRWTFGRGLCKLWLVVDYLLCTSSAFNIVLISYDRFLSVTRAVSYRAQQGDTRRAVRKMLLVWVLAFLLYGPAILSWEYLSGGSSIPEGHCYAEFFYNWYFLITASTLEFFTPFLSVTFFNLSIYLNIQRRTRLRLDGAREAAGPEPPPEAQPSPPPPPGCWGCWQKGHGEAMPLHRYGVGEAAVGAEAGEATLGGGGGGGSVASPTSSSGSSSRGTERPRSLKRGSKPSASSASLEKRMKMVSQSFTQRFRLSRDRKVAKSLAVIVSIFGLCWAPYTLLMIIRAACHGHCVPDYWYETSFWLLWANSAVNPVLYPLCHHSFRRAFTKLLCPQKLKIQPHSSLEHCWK
Sodium-dependent dopamine transporter (Homo sapiens), sequence (Q01959 whole entry): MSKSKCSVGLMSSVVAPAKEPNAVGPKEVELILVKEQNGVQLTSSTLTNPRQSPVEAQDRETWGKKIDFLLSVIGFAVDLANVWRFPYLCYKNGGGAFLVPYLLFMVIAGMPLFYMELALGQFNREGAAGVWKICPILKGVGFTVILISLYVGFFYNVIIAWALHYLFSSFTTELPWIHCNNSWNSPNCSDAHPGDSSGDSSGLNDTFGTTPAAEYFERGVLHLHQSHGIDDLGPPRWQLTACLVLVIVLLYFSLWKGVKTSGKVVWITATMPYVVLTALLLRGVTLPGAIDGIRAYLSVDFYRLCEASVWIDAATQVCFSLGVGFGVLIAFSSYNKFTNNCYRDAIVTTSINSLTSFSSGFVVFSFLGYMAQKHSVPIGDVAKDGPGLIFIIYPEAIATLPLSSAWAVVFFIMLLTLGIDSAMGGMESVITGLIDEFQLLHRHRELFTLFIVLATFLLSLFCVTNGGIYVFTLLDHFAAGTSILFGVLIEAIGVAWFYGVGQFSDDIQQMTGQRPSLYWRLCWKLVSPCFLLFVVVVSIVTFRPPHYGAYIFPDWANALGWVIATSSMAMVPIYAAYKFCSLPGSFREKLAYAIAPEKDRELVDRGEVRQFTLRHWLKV
Muscarinic acetylcholine receptor M5 (Homo sapiens), sequence (P08912 whole entry): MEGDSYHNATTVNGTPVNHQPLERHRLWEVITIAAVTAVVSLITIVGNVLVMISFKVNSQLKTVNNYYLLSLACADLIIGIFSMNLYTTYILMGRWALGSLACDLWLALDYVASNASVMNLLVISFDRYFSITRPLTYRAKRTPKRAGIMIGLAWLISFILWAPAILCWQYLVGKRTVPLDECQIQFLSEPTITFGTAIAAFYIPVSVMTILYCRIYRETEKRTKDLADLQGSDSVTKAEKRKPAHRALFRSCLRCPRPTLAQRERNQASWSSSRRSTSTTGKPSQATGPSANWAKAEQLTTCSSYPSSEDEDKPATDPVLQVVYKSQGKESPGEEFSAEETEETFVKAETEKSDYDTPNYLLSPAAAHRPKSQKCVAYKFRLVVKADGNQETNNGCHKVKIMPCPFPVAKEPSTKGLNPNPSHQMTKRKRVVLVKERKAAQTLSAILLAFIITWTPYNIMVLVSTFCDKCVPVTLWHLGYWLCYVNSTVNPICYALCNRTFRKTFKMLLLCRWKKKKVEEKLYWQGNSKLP
5-hydroxytryptamine receptor 1A (Homo sapiens), sequence (P08908 whole entry): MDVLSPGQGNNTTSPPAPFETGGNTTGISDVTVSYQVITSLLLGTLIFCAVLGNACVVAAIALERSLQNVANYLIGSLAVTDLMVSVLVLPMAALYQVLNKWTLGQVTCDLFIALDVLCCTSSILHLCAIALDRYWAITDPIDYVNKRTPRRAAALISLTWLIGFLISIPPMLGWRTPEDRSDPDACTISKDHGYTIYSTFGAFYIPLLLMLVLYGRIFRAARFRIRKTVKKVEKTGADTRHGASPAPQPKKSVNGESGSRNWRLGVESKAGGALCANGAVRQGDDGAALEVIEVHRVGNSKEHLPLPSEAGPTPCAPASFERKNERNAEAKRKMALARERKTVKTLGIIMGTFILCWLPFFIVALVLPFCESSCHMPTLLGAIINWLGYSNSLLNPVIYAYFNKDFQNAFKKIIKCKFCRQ
Beta-2 adrenergic receptor (Rattus norvegicus), sequence (P10608 whole entry, looked up): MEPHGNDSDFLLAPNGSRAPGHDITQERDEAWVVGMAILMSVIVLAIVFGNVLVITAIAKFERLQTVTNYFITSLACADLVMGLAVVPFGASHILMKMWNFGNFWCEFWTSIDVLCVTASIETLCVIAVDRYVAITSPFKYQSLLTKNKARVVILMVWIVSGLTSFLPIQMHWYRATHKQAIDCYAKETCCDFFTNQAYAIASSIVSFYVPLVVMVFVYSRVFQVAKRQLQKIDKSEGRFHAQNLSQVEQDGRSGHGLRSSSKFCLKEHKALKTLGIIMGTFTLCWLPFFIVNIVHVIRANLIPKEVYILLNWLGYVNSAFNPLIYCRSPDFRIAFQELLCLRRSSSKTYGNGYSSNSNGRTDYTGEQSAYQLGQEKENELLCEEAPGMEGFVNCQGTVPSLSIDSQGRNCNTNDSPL

One may read the pIC50 as −log10 of the IC50, conventionally taken in molar units. A higher pIC50 goes with a small IC50. One may read the inhibition as the change of the read-out against control, counted positive when it falls. In the case of `C[C@@]1(Cc2ccc(C#N)cc2)C(=O)N(c2cc(Cl)cc(Cl)c2)c2ncc(C(=O)NC3(c4nc(C5CCC5)no4)CC3)n21` [BI 9446], the pIC50 in [1] is less than 6.00. For the same molecule, the inhibition in [2] is -8.46%.

As usually defined, the residual activity is the signal under treatment as a percentage of the control signal. As for `C[C@H](NC(=O)c1cnc2n1[C@](C)(Cc1ccc(C#N)cc1)C(=O)N2c1cc(Cl)c(F)c(Cl)c1)C(=O)NC1(c2ccccn2)CC1` [BI 1950], the residual activity in data set [3] was 105%; in data set [4] it was 102%; in data set [5] it was 84%; in data set [7], 86%; in data set [8] it was 67%; in data set [9], 111%. The residual activity in data set [10] was 98%; in [11], 107%; in data set [13] (Compound concentration 0.03 uM), 103%; in data set [13] (Compound concentration 0.1 uM), 86%; in data set [13] (Compound concentration 0.3 uM) it was 84%; in data set [13] (Compound concentration 1.0 uM) it was 75%. Further, the residual activity in data set [13] (Compound concentration 3.0 uM) is 67%; in data set [13] (Compound concentration 10.0 uM), 42%; in data set [14], 72%; in data set [15], 78%; in data set [16], 85%. Further, the activity at 0.03 µM in [6] (compound concentration 0.03 uM) is listed as 97% (not active). Further, the activity at 0.1 µM in data set [6] (compound concentration 0.1 uM) is reported as 98% (not active). The activity at 0.3 µM in [6] (compound concentration 0.3 uM) was 94% (not active). Moreover, in data set [6] (compound concentration 1 uM), the activity at 1 µM is given as 81% (not active). In addition, in data set [6] (compound concentration 3 uM), the activity at 3 µM is recorded as 58% (not active). For the same molecule, the results for the activity at 10 µM in data set [6] (compound concentration 10 uM) and in data set [12] were 28% and 107% (not active), respectively. Further, in [17], the inhibition was -9.74%.
